Source: patent US4591504A, “Human leucocyte pepsin-like enzyme as a therapeutic agent for treating allergic disorders and immune complex diseases” (Mochida Pharmaceutical Co., Ltd., priority 1982, dated 1986)

Experiments:
[1] = tested on: human breast cancer cells MX-1; assay: Effect on the growth of cultured human breast cancer cells MX-1; assay type: cell-based; conditions: 100 μg/ml, 48 hours, read-out: Growth inhibition rate
Procedure: (§1) Human breast cancer cells MX-1 and mouse leukemia cells L1210 were respectively suspended at a cell concentration of 10^5 /ml in Eagle's medium containing 10% calf serum and test substances. The cells were cultured at 37° C. under 5% CO2 for 48 hours. Then the number of viable cells was counted after staining with Tripan Blue. [formula]

[2] = tested on: mouse leukemia cells L1210; assay: Effect on the growth of cultured mouse leukemia cells L1210; assay type: cell-based; conditions: 100 μg/ml, 48 hours, read-out: Growth inhibition rate
Procedure: as §1

leukemia cells P388 = assay: Effect on leukemia cells P388 bearing mice; assay type: in vivo, mouse (BDF1); conditions: 0.5 mg/kg; control 100 ± 5
Procedure: 10^5 of leukemia cells P388 were transplanted intraperitoneally to a group of 5 BDF1 male mice. The human leucocyte pepsin-like enzyme was injected intravenously into the mice twice a day beginning on the next day until the animals died. The average life span was calculated and expressed as a percentage of control. [formula]

Structure (SMILES): CO[C@@]12[C@H](COC(N)=O)C3=C(C(=O)C(C)=C(N)C3=O)N1C[C@@H]1N[C@@H]12 [Mitomycin C]
- inhibition at 100 µg/mL [1]: 48%
- inhibition at 100 µg/mL [2]: 61%
- Average life span (percentage of control) (leukemia cells P388): 135 ± 16%
